Measured values published in US20220315771A1, “REVERSIBLE CULTURAL RELIC PROTECTION MATERIAL WITH FUNCTION OF INHIBITING GROWTH OF BACTERIA AND MOLD” (SHANGHAI UNIVERSITY, priority 2019, published 2022).

Tested on: E. coli
Experiment: Bacterial resistance test: solid 1 mm cube placed in E. coli solution, growth followed by OD600
Details: E. coli solution with starting OD600 0.45

Measured: OD600 value

Protocol: B) The block was putted into an E. coli solution with an OD600 value of 0.45, and the growth of the bacteria was observed.
The antibacterial properties of bacterial in the experimental groups 1 to 5 and the control group were tested, and the OD600 values represent the growth of bacterial cells.

CCc1occc(=O)c1O [experimental group 3, ethyl maltol]
lowest: at 12 hours, control group 0.55 | at 24 hours, control group 0.48 | at 2 days, control group 0.61 | at 3 days, control group 0.47
